“Also recorded” adds a separate entry of the source. Where two headings read alike, the source gives them in different places.
Assays:
[1] = tested on: patients with transient cerebral ischemic attack (TIA) / cerebral infarction; conditions: for recurrence of TIA / onset or recurrence of cerebral infarction during administration: administration continued for 337 days, single patients, hydrochloride
Experimental: The present invention will be explained according to the following examples in more detail. However, the scope of the invention is not limited to these examples.
A person. They occurred transient cerebral ischemic attack (TIA). From three days after the onset, treatment with 160 mg/day of Cataclot (Ono Pharmaceutical Co., Ltd.) was started and it was continued for 2 weeks.
A person. They occurred TIA.
A person. They occurred TIA. From three days after the onset, treatment with 81 mg/day of Kids Bufferin (Lion Corporation) was started and this treatment was continued for about one month.
(§1) A person. They occurred cerebral infarction.
A person. They occurred cerebral infarction and, ten months after the occurrence of TIA.
as §1
A person. They occurred cerebral infarction. […] From that day of the onset of TIA, they were hospitalized for one week and subjected to intravenous drip containing 1 g of Nicholin H (Takeda Chemical Industries, Ltd.) and administration of 300 mg/day of Panaldine (Daiichi Pharmaceutical Co., Ltd.).
A person. They occurred cerebral infarction. […] They occurred TIA two years after the onset of cerebral infarction. From that day of the onset of TIA, administration of 200 mg/day of Panaldine (Daiichi Pharmaceutical Co., Ltd.) and, in addition, 162 mg/day of Kids Bufferin (Lion Corporation) was started.
A person. They occurred cerebral infarction. […] Immediately after the recurrence, they were treated with fluid for supplementation, urokinase and 300 mg/day of Panaldine (Daiichi Pharmaceutical Co., Ltd.).

[2] = tested on: stroke, myocardial infarction and vascular death; conditions: 142 trials; cited from earlier work

Compound	recurrence of TIA / onset or recurrence of cerebral infarction during administration ([1]; 75 mg/day)	recurrence of TIA / onset or recurrence of cerebral infarction during administration ([1]; 150 mg/day)	recurrence of TIA and cerebral infarction during administration ([1]; 150 mg/day, administration continued for 496 days, single patient)	recurrence of TIA / onset or recurrence of cerebral infarction during administration ([1]; 300 mg/day)	reduction ratio of odds concerning stroke, myocardial infarction and vascular death against the control group [2] [%]
COc1cccc(CCc2ccccc2OCC(CN(C)C)OC(=O)CCC(=O)O)c1.Cl (racemic) [sarpogrelate hydrochloride, (±)-1-[O-[2-(m-methoxyphenyl)ethyl]phenoxy]-3-(dimethylamino)-2-propyl hydrogensuccinate hydrochloride]	neither recurrence of TIA nor onset of cerebral infarction was observed; also recorded: recurrence of TIA and cerebral infarction was not observed	neither recurrence of TIA nor onset of cerebral infarction was observed; also recorded: recurrence of TIA and cerebral infarction was not observed	recurrence of TIA and cerebral infarction was not observed	neither recurrence of TIA nor onset of cerebral infarction was observed; also recorded: recurrence of TIA and cerebral infarction was not observed	–
CC(=O)Oc1ccccc1C(=O)O [aspirin]	–	–	–	–	25
